Reference: article PMC9694926, “Novel Uracil-Based Inhibitors of Acetylcholinesterase with Potency for Treating Memory Impairment in an Animal Model of Alzheimer’s Disease” (Molecules, 2022)

Key:
hBChE = molecular target: T1, hBChE (Homo sapiens, UniProt P06276); assay: Inhibition constants and inhibition type for hBChE (Dixon and Cornish-Bowden plots); assay type: biochemical
T1 construct: hBChE from blood plasma; purchased Sigma-Aldrich; host or cells: human blood plasma
Protocol: (§1) To study the mechanism of hAChE and hBChE inhibition by compound 2c, the inhibition constants (Ki) were determined. Experiments were performed using three different concentrations of acetylthiocholine (ATC) as substrate for hAChE or butyrylthiocholine (BTC) for hBChE. Analysis of Dixon and Cornish-Bowden plots established that hAChE and hBChE inhibition was of mixed type, with Kci (competitive inhibition) and Kui (uncompetitive) components: Kci = […], Kui = 315 ± 95 pM for hAChE (Figure 3A,B), and Kci = 10.1 ± 3.1 µM, Kui = 24 ± 4.6 µM for hBChE (Figure 3C,D).
(§2) The inhibition constants (Ki) for hAChE and hBChE were determined by Ellman’s method at 412 nm and 25 °C in 0.1M sodium phosphate buffer (pH = 8.0) with various substrate (ATC, BTC) concentrations in the range 0.01–0.1 mM, using UV-1800 Shimadzu (Kyoto, Japan) spectrophotometer. The final enzyme concentration in the assays was in the picomolar range. Controls of active enzyme and substrate spontaneous hydrolysis in the absence of an inhibitor were performed for each substrate concentration. Absorbance change was recorded for 5 min. Inhibition constants were determined from Dixon plot and Cornish-Bowden transformation.

hAChE [1] = molecular target: T2, hAChE (Homo sapiens, UniProt P22303); assay type: in vitro ADME; conditions: 0.1 mM, overnight with hAChE, phosphate buffer pH 8.0, 25 °C, NMR
T2 construct: purchased Sigma-Aldrich
Protocol: There is a possibility that the ester group of the compound 2c can be hydrolyzed by AChE. To test this possibility, the compound 2c (0.1 mM) was incubated overnight with AChE in phosphate buffer (pH 8.0). The same buffer containing compound 2c but without AChE was used as a control. After the end of incubation, the buffer was filtered out of AChE using a centricon-30 ultrafiltration micro-concentrator from Amicon (Millipore Corporation, Billerica, MA, USA) and samples were analyzed by NMR spectroscopy. It was shown that the resonance signals both in the control spectrum and in the spectrum of the residue after AChE treatment are almost the same to those for compound 2c (Supplementary materials, Figures S6, S22 and S41–S44).
The compound 2c was dissolved in ethanol and then in 2 mL of 0.1M sodium phosphate buffer (pH = 8.0) at the final concentration of 0.1 mM. Then, 2.0 units of hAChE were added. The final concentration of ethanol in the buffer was 0.1% vol. The compound 2c was incubated with hAChE overnight at 25 °C. The same volume of buffer containing compound 2c at the concentration of 0.1 mM but without AChE was used as a control. After the end of incubation, the buffer was filtered out of AChE using a centricon-30 ultrafiltration micro-concentrator from Amicon (Millipore Corporation, Billerica, MA, USA). […]

hAChE [2] = molecular target: T2, hAChE; assay: Inhibition constants and inhibition type for hAChE (Dixon and Cornish-Bowden plots); assay type: biochemical
Protocol: as §1, §2

CD1 mice = assay: Acute toxicity (LD50), intraperitoneal injection; assay type: in vivo; conditions: i.p. injection
Protocol: All experiments involving animals were performed in accordance with the guidelines set out by the European Union Council Directive 2010/63/EU; the experimental protocols were approved by the Animal Care and Use Committee of the Federal Research Center “Kazan Scientific Center of the Russian Academy of Sciences”. Toxicological experiments were performed using intraperitoneal injection of the various compounds in CD1 mice weighing 20–25 g. Mice were maintained on a 12 h light/dark cycle (light from 7:00 a.m. to 7:00 p.m.) at 20−22 °C and 60−70% relative humidity. Five different doses (determined during preliminary tests) were used with six animals per dose. Animals were observed 14 days after injection, and symptoms of intoxication were recorded. […] LD50 was determined by the method of Weiss. Stock solutions of compounds were prepared in ethanol or water. Compounds were administered intraperitoneally in sterile physiological saline. The concentration of ethanol in physiological saline was 5% vol.

T2 sequence (P22303 32-614): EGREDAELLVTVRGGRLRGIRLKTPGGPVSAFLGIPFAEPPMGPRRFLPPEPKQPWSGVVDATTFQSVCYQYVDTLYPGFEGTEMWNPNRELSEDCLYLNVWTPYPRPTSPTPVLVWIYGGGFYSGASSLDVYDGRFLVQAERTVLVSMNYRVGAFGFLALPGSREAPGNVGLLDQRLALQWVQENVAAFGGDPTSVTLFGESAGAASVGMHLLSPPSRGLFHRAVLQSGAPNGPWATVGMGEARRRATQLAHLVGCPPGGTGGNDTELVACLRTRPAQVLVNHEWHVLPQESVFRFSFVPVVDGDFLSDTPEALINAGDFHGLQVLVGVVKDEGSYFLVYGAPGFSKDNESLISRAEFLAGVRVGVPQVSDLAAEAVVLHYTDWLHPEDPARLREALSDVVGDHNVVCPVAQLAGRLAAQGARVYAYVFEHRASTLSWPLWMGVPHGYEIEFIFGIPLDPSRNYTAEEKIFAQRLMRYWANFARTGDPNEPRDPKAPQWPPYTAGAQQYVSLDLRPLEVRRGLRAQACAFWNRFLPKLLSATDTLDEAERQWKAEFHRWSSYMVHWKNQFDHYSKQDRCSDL
T1 sequence (P06276 29-602): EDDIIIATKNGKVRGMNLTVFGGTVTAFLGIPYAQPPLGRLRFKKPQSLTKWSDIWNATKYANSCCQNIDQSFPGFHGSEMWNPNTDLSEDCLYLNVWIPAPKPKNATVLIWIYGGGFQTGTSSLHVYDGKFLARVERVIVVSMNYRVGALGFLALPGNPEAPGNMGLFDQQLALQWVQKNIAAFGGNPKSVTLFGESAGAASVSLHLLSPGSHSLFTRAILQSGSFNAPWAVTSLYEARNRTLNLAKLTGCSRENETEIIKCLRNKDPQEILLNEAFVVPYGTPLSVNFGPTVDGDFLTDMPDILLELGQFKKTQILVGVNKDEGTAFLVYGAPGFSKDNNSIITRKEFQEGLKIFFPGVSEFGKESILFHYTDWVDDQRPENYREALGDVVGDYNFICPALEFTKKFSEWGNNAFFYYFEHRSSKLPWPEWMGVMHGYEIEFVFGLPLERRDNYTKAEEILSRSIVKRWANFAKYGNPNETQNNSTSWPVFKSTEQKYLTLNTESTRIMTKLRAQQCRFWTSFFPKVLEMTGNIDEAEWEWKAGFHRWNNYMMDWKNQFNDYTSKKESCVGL

`CCN(CCCCCn1c(C)cc(=O)n(CCCCCN(CC)Cc2cccc(C(=O)OC)c2)c1=O)Cc1cccc(C(=O)OC)c1` [2c, 1,3-Bis[5-(meta-methoxycarbonylbenzylethylamino)pentyl]-6-methyluracil] was tested, and the type of inhibition (hBChE) was “mixed type”, the “Kui (uncompetitive)” value (hBChE; substrate BTC) was 24 ± 4.6 µM and the “stability in the presence of AChE (hydrolysis of ester groups)” value (hAChE [1]) was “remains stable in the presence of AChE”. The type of inhibition (hAChE [2]) was “mixed type”, the “Kui (uncompetitive)” value (hAChE [2]; substrate ATC) was 315 ± 95 pM and the LD50 (CD1 mice) was 147 mg/kg.
